Results as given in patent US9914730B2, “Azaquinazoline inhibitors of Atypical protein Kinase C” (Ignyta, Inc., priority 2012, dated 2018).

target: T1, full-length human PKCι (Homo sapiens, UniProt P41743); test: PKCι IC50 IMAP assay, full-length PKCι at 150 μM ATP; assay type: biochemical; conditions: read-out: IC50 in IMAP assay against full length PKCi at 150 μM ATP
T1 construct: Recombinant, full-length human PKCι expressed in Sf21 insect cells is also commercially available; purchased; host or cells: Sf21 insect cells
T1 sequence (P41743 1-596): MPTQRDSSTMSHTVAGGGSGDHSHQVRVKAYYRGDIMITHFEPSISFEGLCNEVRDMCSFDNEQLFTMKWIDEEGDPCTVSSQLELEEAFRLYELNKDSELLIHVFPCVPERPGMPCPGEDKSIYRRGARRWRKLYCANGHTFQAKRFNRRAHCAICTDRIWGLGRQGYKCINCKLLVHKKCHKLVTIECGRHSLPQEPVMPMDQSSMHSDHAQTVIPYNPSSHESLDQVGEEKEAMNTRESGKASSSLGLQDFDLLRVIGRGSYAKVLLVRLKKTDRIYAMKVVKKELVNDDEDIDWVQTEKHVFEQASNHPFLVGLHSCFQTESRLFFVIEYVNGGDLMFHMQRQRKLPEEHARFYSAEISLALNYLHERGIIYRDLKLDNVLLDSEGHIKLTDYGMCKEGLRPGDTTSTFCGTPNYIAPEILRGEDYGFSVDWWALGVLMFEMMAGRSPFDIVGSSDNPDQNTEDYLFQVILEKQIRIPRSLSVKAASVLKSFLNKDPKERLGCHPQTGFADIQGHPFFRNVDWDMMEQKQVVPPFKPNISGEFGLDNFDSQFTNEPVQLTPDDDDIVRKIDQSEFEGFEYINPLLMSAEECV
Method in brief: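 IMAP fluorescence polarisation (ex 485/em 530 nm) read-out; % inhibition set from no-compound (0%) and no-enzyme (100%) controls, IC50 from dose-response curve fit. Sf21-expressed full-length enzyme ~15 pM, 100 nM FAM peptide, ATP 150 μM (5× KM^APP), 60 min at RT.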

First: FC(F)(F)c1ccnc(Nc2cc(-c3nc(N4CCNCC4)c4c(C5CC5)cncc4n3)ccn2)c1 [Example 269, [4-(5-Cyclopropyl-4-piperazin-1-yl-pyrido[3,4-d]pyrimidin-2-yl)-pyridin-2-yl]-(4-trifluoromethyl-pyridin-2-yl)-amine]
Second: FC(F)(F)c1ccc(Nc2cc(-c3nc(N4CCNCC4)c4c(C5CC5)cncc4n3)ccn2)cn1 [Example 270, [4-(5-Cyclopropyl-4-piperazin-1-yl-pyrido[3,4-d]pyrimidin-2-yl)-pyridin-2-yl]-(6-trifluoromethyl-pyridin-3-yl)-amine]
The IC50 of the first is lower: less than 100 nM for the first, 100 to 1000 nM for the second.

Fc1ccc(Nc2cc(-c3nc(N4CCNCC4)c4c(C5CC5)cncc4n3)ccn2)nc1 [Example 271, [4-(5-Cyclopropyl-4-piperazin-1-yl-pyrido[3,4-d]pyrimidin-2-yl)-pyridin-2-yl]-(5-fluoro-pyridin-2-yl)-amine] and c1ccc(Nc2cc(-c3nc(N4CCNCC4)c4c(C5CC5)cncc4n3)ccn2)cc1 [Example 279, [4-(5-Cyclopropyl-4-piperazin-1-yl-pyrido[3,4-d]pyrimidin-2-yl)-pyridin-2-yl]-phenyl-amine] cannot be ordered by IC50: less than 100 nM for the first, less than 100 nM for the second.

Cc1nc(Nc2cc(-c3nc(N4CCNCC4)c4c(C5CC5)cncc4n3)ccn2)oc1C [Example 272, [4-(5-Cyclopropyl-4-piperazin-1-yl-pyrido[3,4-d]pyrimidin-2-yl)-pyridin-2-yl]-(4,5-dimethyl-oxazol-2-yl)-amine] and c1cc(-c2nc(N3CCNCC3)c3c(C4CC4)cncc3n2)cc(NC2CCCC2)n1 [Example 281, Cyclopentyl-[4-(5-cyclopropyl-4-piperazin-1-yl-pyrido[3,4-d]pyrimidin-2-yl)-pyridin-2-yl]-amine] cannot be ordered by IC50: less than 100 nM for the first, less than 100 nM for the second.

c1ccc(Nc2cc(-c3nc(N4CCN[C@@H](C5CC5)C4)c4c(C5CC5)cncc4n3)ccn2)cc1 [Example 273, {4-[5-Cyclopropyl-4-((S)-3-cyclopropyl-piperazin-1-yl)-pyrido[3,4-d]pyrimidin-2-yl]-pyridin-2-yl}-phenyl-amine] and Fc1ccccc1Nc1cc(-c2nc(N3CCN[C@@H](C4CC4)C3)c3c(C4CC4)cncc3n2)ccn1 [Example 276, {4-[5-Cyclopropyl-4-((S)-3-cyclopropyl-piperazin-1-yl)-pyrido[3,4-d]pyrimidin-2-yl]-pyridin-2-yl}-(2 fluoro-phenyl)-amine] cannot be ordered by IC50: less than 100 nM for the first, less than 100 nM for the second.

First: OC1CCN(c2nc(-c3ccnc(Nc4ccccc4F)c3)nc3cncc(C4CC4)c23)CC1 [Example 274, 1-{5-Cyclopropyl-2-[2-(2-fluoro-phenylamino)-pyridin-4-yl]-pyrido[3,4-d]pyrimidin-4-yl}-piperidin-4-ol]
Second: Fc1cccc(Nc2cc(-c3nc(N4CCN[C@@H](C5CC5)C4)c4c(C5CC5)cncc4n3)ccn2)n1 [Example 277, {4-[5-Cyclopropyl-4-((S)-3-cyclopropyl-piperazin-1-yl)-pyrido[3,4-d]pyrimidin-2-yl]-pyridin-2-yl}-(6-fluoro-pyridin-2-yl)-amine]
The IC50 of the first is higher: 100 to 1000 nM for the first, less than 100 nM for the second. The second is the more potent here.

First: CC(C)[C@H]1CN(c2nc(-c3ccnc(Nc4ccccc4)c3)nc3cncc(C4CC4)c23)CCN1 [Example 275, {4-[5-Cyclopropyl-4-((S)-3-isopropyl-piperazin-1-yl)-pyrido[3,4-d]pyrimidin-2-yl]-pyridin-2-yl}-phenyl-amine]
Second: CC(F)(F)C1CN(c2nc(-c3ccnc(Nc4ccccc4)c3)nc3cncc(C4CC4)c23)CCN1 (stereo not drawn) [Example 278, (4-{5-Cyclopropyl-4-[3-(1,1-difluoro-ethyl)-piperazin-1-yl]-pyrido[3,4-d]pyrimidin-2-yl}-pyridin-2-yl)-phenyl-amine]
The IC50 of the first is lower: less than 100 nM for the first, 10000 to 40000 nM for the second. The first is the more potent here.

First: N#CC[C@H]1CN(c2nc(-c3ccnc(Nc4ccccc4)c3)nc3cncc(C4CC4)c23)CCN1 [Example 280, {(S)-4-[5-Cyclopropyl-2-(2-phenylamino-pyridin-4-yl)-pyrido[3,4-d]pyrimidin-4-yl]-piperazin-2-yl}-acetonitrile]
Second: c1ccc(Nc2cc(-c3nc(N4C[C@@H]5C[C@H]4CN5)c4ccncc4n3)ccn2)cc1 [Example 306, {4-[(1S,4S)-4-(2,5-Diaza-bicyclo[2.2.1]hept-2-yl)-pyrido[3,4-d]pyrimidin-2-yl]-pyridin-2-yl}-phenyl-amine]
The IC50 of the first is lower: less than 100 nM for the first, 1000 to 10000 nM for the second.

c1cc(-c2nc(N3CCNCC3)c3c(C4CC4)cncc3n2)cc(NC2CCCCC2)n1 [Example 282, Cyclohexyl-[4-(5-cyclopropyl-4-piperazin-1-yl-pyrido[3,4-d]pyrimidin-2-yl)-pyridin-2-yl]-amine] and c1cc(-c2nc(N3CCNCC3)c3c(C4CC4)cncc3n2)cc(NC2CCOCC2)n1 [Example 283, [4-(5-Cyclopropyl-4-piperazin-1-yl-pyrido[3,4-d]pyrimidin-2-yl)-pyridin-2-yl]-(tetrahydro-pyran-4-yl)-amine] cannot be ordered by IC50: less than 100 nM for the first, less than 100 nM for the second.

Compared with FC(F)(F)C1CN(c2nc(-c3ccnc(NC4CCCC4)c3)nc3cncc(C4CC4)c23)CCN1 (stereo not drawn) [Example 284, Cyclopentyl-{4-[5-cyclopropyl-4-(3-trifluoromethyl-piperazin-1-yl)-pyrido[3,4-d]pyrimidin-2-yl]-pyridin-2-yl}-amine], c1cc(-c2nc(N3CCNCC3)c3c(C4CC4)cncc3n2)cc(NC23CC4CC(CC(C4)C2)C3)n1 [Example 285, Adamantan-1-yl-[4-(5-cyclopropyl-4-piperazin-1-yl-pyrido[3,4-d]pyrimidin-2-yl)-pyridin-2-yl]-amine] is lower in IC50: 100 to 1000 nM for the first, less than 100 nM for the second. The second is the more potent here.

Nc1ccccc1C(=O)Nc1cc(-c2nc(N[C@@H]3CCNC3)c3ccncc3n2)ccn1 [Example 303, 2-Amino-N-{4-[4-((R)-pyrrolidin-3-ylamino)-pyrido[3,4-d]pyrimidin-2-yl]-pyridin-2-yl}-benzamide] and Nc1cccc(C(=O)Nc2cc(-c3nc(N[C@@H]4CCNC4)c4ccncc4n3)ccn2)c1 [Example 309, 3-Amino-N-{4-[4-((R)-pyrrolidin-3-ylamino)-pyrido[3,4-d]pyrimidin-2-yl]-pyridin-2-yl}-benzamide] fall in the same range of IC50: 100 to 1000 nM for the first, 100 to 1000 nM for the second.

First: NC(=O)c1ccc(Nc2cc(-c3nc(N[C@@H]4CCNC4)c4ccncc4n3)ccn2)cc1 [Example 304, 4-{4-[4-((R)-Pyrrolidin-3-ylamino)-pyrido[3,4-d]pyrimidin-2-yl]-pyridin-2-ylamino}-benzamide]
Second: NC(=O)Cc1ccc(Nc2cc(-c3nc(N[C@@H]4CCNC4)c4ccncc4n3)ccn2)cc1 [Example 313, 2-(4-{4-[4-((R)-Pyrrolidin-3-ylamino)-pyrido[3,4-d]pyrimidin-2-yl]-pyridin-2-ylamino}-phenyl)-acetamide]
The IC50 of the first is higher: 100 to 1000 nM for the first, less than 100 nM for the second.

First: Nc1ccc(C(=O)Nc2cc(-c3nc(N[C@@H]4CCNC4)c4ccncc4n3)ccn2)cc1 [Example 305, 4-Amino-N-{4-[4-((R)-pyrrolidin-3-ylamino)-pyrido[3,4-d]pyrimidin-2-yl]-pyridin-2-yl}-benzamide]
Second: Nc1ccc(CC(=O)Nc2cc(-c3nc(N[C@@H]4CCNC4)c4ccncc4n3)ccn2)cc1 [Example 314, 2-(4-Amino-phenyl)-N-{4-[4-((R)-pyrrolidin-3-ylamino)-pyrido[3,4-d]pyrimidin-2-yl]-pyridin-2-yl}-acetamide]
The IC50 of the first is higher: 100 to 1000 nM for the first, less than 100 nM for the second. The second is the more potent here.

O=C(Nc1cc(-c2nc(N[C@@H]3CCNC3)c3ccncc3n2)ccn1)c1cnccn1 [Example 307, Pyrazine-2-carboxylic acid {4-[4-((R)-pyrrolidin-3-ylamino)-pyrido[3,4-d]pyrimidin-2-yl]-pyridin-2-yl}-amide] and NC(=O)c1cccc(Nc2cc(-c3nc(N[C@@H]4CCNC4)c4ccncc4n3)ccn2)c1 [Example 308, 3-{4-[4-((R)-Pyrrolidin-3-ylamino)-pyrido[3,4-d]pyrimidin-2-yl]-pyridin-2-ylamino}-benzamide] fall in the same range of IC50: 100 to 1000 nM for the first, 100 to 1000 nM for the second.

First: NC(=O)COc1ccc(Nc2cc(-c3nc(N[C@@H]4CCNC4)c4ccncc4n3)ccn2)cc1 [Example 310, 2-(4-{4-[4-((R)-Pyrrolidin-3-ylamino)-pyrido[3,4-d]pyrimidin-2-yl]-pyridin-2-ylamino}-phenoxy)-acetamide]
Second: NC(=O)COc1cccc(Nc2cc(-c3nc(N[C@@H]4CCNC4)c4ccncc4n3)ccn2)c1 [Example 311, 2-(3-{4-[4-((R)-Pyrrolidin-3-ylamino)-pyrido[3,4-d]pyrimidin-2-yl]-pyridin-2-ylamino}-phenoxy)-acetamide]
The IC50 of the first is higher: 100 to 1000 nM for the first, less than 100 nM for the second.

NC(=O)Cc1cccc(Nc2cc(-c3nc(N[C@@H]4CCNC4)c4ccncc4n3)ccn2)c1 [Example 316, 2-(3-{4-[4-((R)-Pyrrolidin-3-ylamino)-pyrido[3,4-d]pyrimidin-2-yl]-pyridin-2-ylamino}-phenyl)-acetamide] and Nc1cccc(CC(=O)Nc2cc(-c3nc(N[C@@H]4CCNC4)c4ccncc4n3)ccn2)c1 [Example 317, 2-(3-Amino-phenyl)-N-{4-[4-((R)-pyrrolidin-3-ylamino)-pyrido[3,4-d]pyrimidin-2-yl]-pyridin-2-yl}-acetamide] fall in the same range of IC50: 100 to 1000 nM for the first, 100 to 1000 nM for the second.
